# Counter-ions that a name gives are not always drawn.
# Experiment: not given
# Details: cited from earlier work
row,Compound,Reported Solubility in water
1,CC(=O)Oc1ccccc1C(=O)O [Aspirin],Insoluble
2,O=c1c(O)c(-c2ccc(O)cc2)oc2cc(O)cc(O)c12 [Kaempferol],Insoluble
3,O=C1CCc2cc(OCCCCc3nnnn3C3CCCCC3)ccc2N1 [Cilostazol],Insoluble
4,Nc1cccc2c1C(=O)N(C1CCC(=O)NC1=O)C2=O (stereo not shown) [Pomalidomide],Insoluble
5,Cc1ccc(-c2cc(C(F)(F)F)nn2-c2ccc(S(N)(=O)=O)cc2)cc1 [Celecoxib],Insoluble
6,Cc1cc2c(s1)Nc1ccccc1N=C2N1CCN(C)CC1 [Olanzapine],Insoluble
7,C[C@@H]1C[C@H]2[C@@H]3CCC4=CC(=O)C=C[C@]4(C)[C@@]3(F)[C@@H](O)C[C@]2(C)[C@@]1(O)C(=O)CO [Dexamethasone],Insoluble
8,COc1ccc2c(c1)c(CC(=O)O)c(C)n2C(=O)c1ccc(Cl)cc1 [Indomethacin],Insoluble
9,CCc1nc(N)nc(N)c1-c1ccc(Cl)cc1 [Pyrimethamine],Insoluble
10,C[C@]12C=CC(=O)C=C1CC[C@@H]1[C@@H]2C(=O)C[C@@]2(C)[C@H]1CC[C@]2(O)C(=O)CO [Prednisone],Insoluble
11,"O=C(O)Cc1ccccc1Nc1c(Cl)cccc1Cl [Diclofenac(pain), Diclofenac]",Insoluble
12,CCc1cccc2c3c([nH]c12)C(CC)(CC(=O)O)OCC3 (stereo not shown) [Etodolac],Insoluble
13,COc1ccc(CCN2CCC(Nc3nc4ccccc4n3Cc3ccc(F)cc3)CC2)cc1 [Astemizole],Insoluble
14,COc1ccc2c(c1)c(CC(=O)OCC(=O)O)c(C)n2C(=O)c1ccc(Cl)cc1 [Acemetacin],Insoluble
15,C=CC(=O)N1CCC[C@@H](n2nc(-c3ccc(Oc4ccccc4)cc3)c3c(N)ncnc32)C1 [PCI-32765],Insoluble
16,CC(=O)Nc1ccc(O)cc1 [Paracetamol],Insoluble
17,CC1(C)S[C@@H]2[C@H](NC(=O)C(C(=O)O)c3ccccc3)C(=O)N2[C@H]1C(=O)O (stereo partly shown) [Carbenicillin disodium],Insoluble
18,"O=C1CCc2ccc(OCCCCN3CCN(c4cccc(Cl)c4Cl)CC3)cc2N1 [Aripiprazole, 99%, Aripiprazole]",Insoluble
19,"Nc1nnc(-c2cccc(Cl)c2Cl)c(N)n1 [6-(2,3-Dichlorophenyl)-1,2,4-triazine-3,5-diamine]",Insoluble
20,Oc1ccc(C=Cc2cc(O)cc(O)c2)cc1 [Resveratrol],Insoluble

row,Compound,Reported Solubility in water
1,CC[C@H](C)C(=O)O[C@H]1CCC=C2C=C[C@H](C)[C@H](CC[C@@H]3C[C@@H](O)CC(=O)O3)[C@H]21 [Mevastatin],Insoluble
2,CS(=O)(=O)OCCCCOS(C)(=O)=O [Busulphan],Insoluble
3,COCCOC(=O)C1=C(C)NC(C)=C(C(=O)OC(C)C)C1c1cccc([N+](=O)[O-])c1 (stereo not shown) [Nimodipine],Insoluble
4,CN(C)CCC[C@@]1(c2ccc(F)cc2)OCc2cc(C#N)ccc21 [Escitalopram],Insoluble
5,COc1ccccc1OCCNCC(O)COc1cccc2[nH]c3ccccc3c12 (stereo not shown) [Carvedilol],Insoluble
6,CC(C)(C)NC(=O)[C@H]1CC[C@H]2[C@@H]3CC[C@H]4NC(=O)C=C[C@]4(C)[C@H]3CC[C@]12C [Finasteride],Insoluble
7,Cn1cnc([N+](=O)[O-])c1Sc1ncnc2nc[nH]c12 [Azathioprine],Insoluble
8,NC(N)=Nc1nc(CSCCC(N)=NS(N)(=O)=O)cs1 [Famotidine],Insoluble
9,C[C@@H]1CC[C@H]2[C@@H](C)C(=O)O[C@@H]3O[C@@]4(C)CC[C@@H]1[C@]32OO4 [Artemisinin],Insoluble
10,COc1cccc2c1C(=O)c1c(O)c3c(c(O)c1C2=O)C[C@@](O)(C(C)=O)C[C@@H]3O[C@H]1C[C@H](N)[C@H](O)[C@H](C)O1 [Daunorubicin hydrochloride],Insoluble
11,COc1cc([C@@H]2c3cc4c(cc3[C@@H](O[C@@H]3O[C@@H]5CO[C@@H](C)O[C@H]5[C@H](O)[C@H]3O)[C@H]3COC(=O)[C@H]23)OCO4)cc(OC)c1O [Etoposide],Insoluble
12,CO/N=C(\C(=O)N[C@@H]1C(=O)N2C(C(=O)O)=C(COC(C)=O)CS[C@H]12)c1csc(N)n1 [Cefotaxime],Insoluble
13,COC(=O)[C@H](c1ccccc1Cl)N1CCc2sccc2C1 [Clopidogrel Sulfate],Insoluble
14,O=c1[nH]c2ccccc2n1CCCN1CCC(n2c(=O)[nH]c3cc(Cl)ccc32)CC1 [Domperidone],Insoluble
15,"Nc1ncn([C@@H]2O[C@H](CO)[C@@H](O)[C@H]2O)c(=O)n1 [Azacitidine (Vidaza), Azacitidine]",Insoluble
16,"CC(=O)O[C@H]1C(=O)[C@@]2(C)[C@H]([C@H](OC(=O)c3ccccc3)[C@]3(O)C[C@H](OC(=O)[C@H](O)[C@@H](NC(=O)c4ccccc4)c4ccccc4)C(C)=C1C3(C)C)[C@]1(OC(C)=O)CO[C@@H]1C[C@@H]2O [Paclitaxel from Taxus Brevifolia, Paclitaxel]",Insoluble
17,C[C@@H](O[C@H]1OCCN(Cc2n[nH]c(=O)[nH]2)[C@H]1c1ccc(F)cc1)c1cc(C(F)(F)F)cc(C(F)(F)F)c1 [Aprepitant],Insoluble
18,"CCn1cc(C(=O)O)c(=O)c2cc(F)c(N3CCNCC3)cc21 [Norfloxacin(antibiotic), Norfloxacin]",Insoluble
19,COC1=CC(=O)C[C@@H](C)[C@]12Oc1c(Cl)c(OC)cc(OC)c1C2=O [Griseofulvin],Insoluble

# Experiment: Solubility with Polyphenolic Polymer in water
# Details: molecule formulated with Polyphenolic Polymer
row,Solubility with Polyphenolic Polymer in water (more than 99%),Compound
1,Water Soluble,CC(=O)Oc1ccccc1C(=O)O [Aspirin]
2,Water Soluble,O=c1c(O)c(-c2ccc(O)cc2)oc2cc(O)cc(O)c12 [Kaempferol]
3,Water Soluble,O=C1CCc2cc(OCCCCc3nnnn3C3CCCCC3)ccc2N1 [Cilostazol]
4,Water Soluble,Nc1cccc2c1C(=O)N(C1CCC(=O)NC1=O)C2=O (stereo not shown) [Pomalidomide]
5,Water Soluble,Cc1ccc(-c2cc(C(F)(F)F)nn2-c2ccc(S(N)(=O)=O)cc2)cc1 [Celecoxib]
6,Water Soluble,C[C@@H]1C[C@H]2[C@@H]3CCC4=CC(=O)C=C[C@]4(C)[C@@]3(F)[C@@H](O)C[C@]2(C)[C@@]1(O)C(=O)CO [Dexamethasone]
7,Water Soluble,CCc1nc(N)nc(N)c1-c1ccc(Cl)cc1 [Pyrimethamine]

row,Compound,Solubility with Polyphenolic Polymer in water (more than 99%)
1,Ivermectin,Water Soluble
2,CC[C@H](CC[C@@H](C)[C@H]1CC[C@H]2[C@@H]3CC=C4C[C@@H](O)CC[C@]4(C)[C@H]3CC[C@]12C)C(C)C [Beta-sitosterol],Water Soluble
3,C/C(=C\c1csc(C)n1)[C@@H]1C[C@@H]2O[C@@H]2CCC[C@H](C)[C@H](O)[C@@H](C)C(=O)C(C)(C)[C@@H](O)CC(=O)O1 [Epothilone A],Water Soluble
4,Pyrethrin,Water Soluble
5,C[C@@H]1[C@H](O)[C@@H](C)/C=C/C=C/CC/C=C/C=C/C=C/C=C/C(O[C@H]2O[C@H](C)[C@@H](O)[C@H](N)[C@@H]2O)CC2O[C@](O)(CC(O)C(O)CCC(O)CC(O)CC(O)CC(=O)O[C@H]1C)CC(O)C2C(=O)O (stereo partly shown) [Nystatin mycostatin],Water Soluble
6,"N[C@@H](Cc1ccc(N(CCCl)CCCl)cc1)C(=O)O [Melphalan(cancer), Melphalan]",Water Soluble

# From patent US11622937B2, “Polyphenolic polymer to make water-insoluble molecules become water-soluble” (priority 2015, dated 2023)
